Experimental data reported in ChEMBL document CHEMBL1201862, “PubChem BioAssay data set” (2004).
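Results reflect a 48-hour exposure of cells in 96-well plates to compound at five concentrations. Here, GI50 denotes the concentration required for 50% inhibition of growth.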 Activity calls are given as the source filed them. Rule as the data show it: active = GI50 up to about 1.1 µM and inactive = higher. Where a SMILES comes first, the peptide text is derived from it. [ ]: non-standard residue; d: D form. The star is where a group is joined. Phe(4-NO2) = N[CH](Cc1ccc([N+](=O)[O-])cc1)C(=O)O; Boc = CC(C)(C)OC(=O)*; OBn = c1ccc(CO*)cc1

Legend:
Assay in all cases: NCI anticancer screen, dose series, 48 h
A549 = system: A549
CAKI-1 = system: CAKI-1
COLO 205 = system: COLO 205
HCT-15 = system: HCT-15
HOP-62 = system: HOP-62
HT-29 = system: HT-29
IGROV-1 = system: IGROV-1
MDA-MB-231 = system: MDA-MB-231
NCI-H226 = system: NCI-H226
NCI-H522 = system: NCI-H522
OVCAR-5 = system: OVCAR-5
RPMI-8226 = system: RPMI-8226
RXF 393 = system: RXF 393
SK-MEL-5 = system: SK-MEL-5
SK-OV-3 = system: SK-OV-3
SNB-19 = system: SNB-19
TK-10 = system: TK-10
U-251 = system: U-251
UACC-257 = system: UACC-257
UACC-62 = system: UACC-62

| Structure (SMILES) | GI50 (A549) | GI50 (CAKI-1) | GI50 (COLO 205) | GI50 (HCT-15) [µM] | GI50 (HOP-62) | GI50 (HT-29) | GI50 (IGROV-1) | GI50 (MDA-MB-231) | GI50 (NCI-H226) | GI50 (NCI-H522) | GI50 (OVCAR-5) | GI50 (RPMI-8226) | GI50 (RXF 393) | GI50 (SK-MEL-5) | GI50 (SK-OV-3) | GI50 (SNB-19) | GI50 (TK-10) | GI50 (U-251) | GI50 (UACC-257) | GI50 (UACC-62) |
| --- | --- | --- | --- | --- | --- | --- | --- | --- | --- | --- | --- | --- | --- | --- | --- | --- | --- | --- | --- | --- |
| CCOC(=O)c1oc2ccc([N+](=O)[O-])c3c2c1CCC3 | > 100 µM (inactive) | 61.4 µM (inactive) | > 85.1 µM (inactive) | 97.9 | 24.3 µM (inactive) | > 100 µM (inactive) | 57.9 µM (inactive) | 36.5 µM (inactive) | > 88.7 µM (inactive) | 35.2 µM (inactive) | > 92 µM (inactive) | > 100 µM (inactive) | 26 µM (inactive) | 69.7 µM (inactive) | 9.89 µM (inactive) | 34.7 µM (inactive) | 47.6 µM (inactive) | 29.9 µM (inactive) | > 82 µM (inactive) | 13.8 µM (inactive) |
| Clc1ccc(-c2nn3c(CCCCCCCCc4nnc5sc(-c6ccc(Cl)cc6)nn45)nnc3s2)cc1 | 13.2 µM (inactive) | 16.3 µM (inactive) | 26.6 µM (inactive) | 26.3 | 26.4 µM (inactive) | 12.4 µM (inactive) | 22.8 µM (inactive) | 27 µM (inactive) | 25.6 µM (inactive) | 7.91 µM (inactive) | 36.3 µM (inactive) | 10.3 µM (inactive) | 14.9 µM (inactive) | 13.8 µM (inactive) | 30.1 µM (inactive) | 20.6 µM (inactive) | 23.4 µM (inactive) | 15.9 µM (inactive) | 12.3 µM (inactive) | 32.4 µM (inactive) |
| O=C1SC(SCc2ccccc2)=NC12CC2c1ccccc1 (stereo not given) | 26.9 µM (inactive) | 20 µM (inactive) | 23.4 µM (inactive) | 20.4 | 29 µM (inactive) | 21.3 µM (inactive) | 21.4 µM (inactive) | 20.3 µM (inactive) | 23.6 µM (inactive) | 14.5 µM (inactive) | 18.5 µM (inactive) | 16.7 µM (inactive) | 18.7 µM (inactive) | 17.8 µM (inactive) | 37.7 µM (inactive) | 26.7 µM (inactive) | 25.6 µM (inactive) | 18.3 µM (inactive) | 16.8 µM (inactive) | 17.1 µM (inactive) |
| COc1cc(C2SCC(=O)N2c2ccc(Cl)c(Cl)c2)cc(OC)c1OC (stereo not given) | > 78.7 µM (inactive) | 27.5 µM (inactive) | 34.3 µM (inactive) | 20.6 | 24.2 µM (inactive) | 23.1 µM (inactive) | > 82.6 µM (inactive) | > 64.4 µM (inactive) | > 37 µM (inactive) | 22.1 µM (inactive) | 7.5 µM (inactive) | 31.8 µM (inactive) | 18.5 µM (inactive) | 21.7 µM (inactive) | 99.3 µM (inactive) | > 100 µM (inactive) | > 100 µM (inactive) | 47.3 µM (inactive) | 32.6 µM (inactive) | 0.838 µM (active) |
| COC(=O)CCC(NC(=O)OC(C)(C)C)C(=O)NC(Cc1ccc([N+](=O)[O-])cc1)C(=O)NCC(=O)OCc1ccccc1 (stereo not given) (Boc-Glu(OMe)-[Phe(4-NO2)]-Gly-OBn; configuration not given here) | > 100 µM (inactive) | > 65.6 µM (inactive) | 38.7 µM (inactive) | > 100 | 27.8 µM (inactive) | > 100 µM (inactive) | > 100 µM (inactive) | > 60 µM (inactive) | > 64.1 µM (inactive) | > 100 µM (inactive) | > 100 µM (inactive) | > 100 µM (inactive) | 26.9 µM (inactive) | > 100 µM (inactive) | > 82.2 µM (inactive) | > 55.7 µM (inactive) | > 100 µM (inactive) | 55.3 µM (inactive) | > 100 µM (inactive) | > 31.6 µM (inactive) |
| Sc1ncnc2nc[nH]c12 [MERCAPTOPURINE ANHYDROUS] | 30.1 µM (inactive) | 3.21 µM (inactive) | 4.94 µM (inactive) | 4.57 | 1.75 µM (inactive) | 4.02 µM (inactive) | 9.48 µM (inactive) | 24.4 µM (inactive) | 58.5 µM (inactive) | 1.62 µM (inactive) | 8.63 µM (inactive) | 1.76 µM (inactive) | 29.5 µM (inactive) | 8.36 µM (inactive) | 1.03 µM (active) | 128 µM (inactive) | 1.94 µM (inactive) | 13.7 µM (inactive) | 14.4 µM (inactive) | 1.76 µM (inactive) |
